Reference: patent publication US7179814B2, “Agents for controlling plant pests” (priority 1998, dated 2007)
Like-named read-outs stand apart in the source and are kept apart here.

Legend:
[1] = tested on: green rice leaf hopper (Nephotettix cincticeps); assay: Nephotettix test (rice seedling dip); assay type: in vivo
Method: (§1) To produce a suitable preparation of active compound, 1 part by weight of an active compound or an active compound combination is mixed with the stated amounts of solvent and emulsifier, and the concentrate is diluted with water to the desired concentration.
Rice seedlings (Oryza sativa) are treated by being dipped into the active compound preparation of the desired concentration and are populated with the green rice leaf hopper (Nephotettix cincticeps) while the leaves are still moist.
After the desired period of time, the kill in % is determined. 100% means that all the leaf hoppers have been killed; 0% means that none of the leaf hoppers have been killed.

green peach aphid = assay: Myzus test (cabbage leaf dip); assay type: in vivo, Myzus (green peach aphid); details: concentration 0.1 %
Method: as §1
Cabbage leaves (Brassica oleracea) which are heavily infested by the green peach aphid are treated by being dipped into the active compound preparation of the desired concentration.
After the desired period of time, the kill in % is determined. 100% means that all aphids have been killed; 0% means that none of the aphids have been killed.

[2] = tested on: Diabrotica balteata larvae in soil; assay: Critical concentration test/soil insects, Diabrotica balteata; assay type: in vivo; details: 20.0 ppm in soil, 7 days after infestation; for pest or weed control at 20 ppm: Diabrotica balteata, 168 h, read-out: Kill in %
Method: (§2) To produce a suitable preparation of active compound, 1 part by weight of the active compound or the active compound mixture is mixed with the stated amounts of solvent and emulsifier, and the concentrate is diluted with water to the desired concentration.
(§3) The active compound preparation is mixed intimately with soil. Here, the concentration of the active compound in the preparation is almost irrelevant; only the amount by weight of active compound or active compound mixture per volume unit of soil, which is stated in ppm (mg/l), matters.
Soil is filled into 0.5 l pots and these are allowed to stand at 20° C. Immediately after preparation, 5 pre-germinated maize corns are placed into each pot. After 2 days, the test insects are placed into the treated soil. After a further 7 days, the kill in % is determined. 100% means that all test insects have been killed; 0% means that none of the test insects have been killed.

Spodoptera frugiperda = assay: Critical concentration test/soil insects, Spodoptera frugiperda; assay type: in vivo; details: 120 h, 20.00 ppm in soil, 5 days after infestation, read-out: Kill in %
Method: as §2, §3
Soil is filled into 0.5 l pots and these are allowed to stand at 20° C. Immediately after preparation, 3 pre-germinated maize corns are placed into each pot. After the maize corns have emerged, boring sleeves are placed onto the pots. 9 days after preparation, the maize is populated with the test insects. After a further 5 days, the kill in % is determined. 100% means that all test insects have been killed; 0% means that the number of insects which are still alive is the same as for the untreated control.

[3] = tested on: Phaedon cochleariae larvae; assay: Critical concentration test/root-systemic action, Phaedon cochleariae; assay type: in vivo; details: 72 h, 20.00 ppm in soil, root-systemic, 3 days after infestation, read-out: Kill in %
Method: as §2, §3
Soil is filled into 250 ml pots and these are planted with cabbage (Brassica oleracea). The active compound or the active compound combination can thus be taken up by the plant roots from the soil and transported into the leaves.
After 7 days, the leaves are populated with the abovementioned test animals. After a further 3 days, the kill in % is determined. 100% means that all test insects have been killed; 0% means that the number of insects which are still alive is the same as in the untreated control.

Botrytis cinerea = assay: Botrytis test (bean)/protective; assay type: in vivo; details: 10 g/ha, single active compound, 2 days after inoculation
Method: as §1, with “of” for “of an”, “or” for “or an”, “desired concentration, or a commercial formulation of active compound or active compound combination is diluted with water to the desired” for “desired”
To test for protective activity, young plants are sprayed with the active compound preparation at the stated application rate. After the spray coating has dried on, 2 small pieces of agar colonized by Botrytis cinerea are placed onto each leaf. The inoculated plants are placed in a dark chamber at approximately 20° C. and 100% relative atmospheric humidity.
2 days after the inoculation, the size of the disease spots on the leaves is evaluated. 0% means an efficacy which corresponds to that of the control, whereas an efficacy of 100% means that no infection is observed.

Fusarium culmorum = Fusarium culmorum test (wheat)/seed treatment; assay type: in vivo; details: 75 g/ha, dry seed dressing, approximately 3 weeks after sowing
Method: The active compounds are applied as a dry dressing. They are prepared by extending the active compound in question with ground minerals to give a finely pulverulent mixture which ensures even distribution on the surface of the seeds.
For the dressing, the infected seeds are shaken with the dressing in a closed glass bottle for 3 minutes.
2×100 seeds of the wheat are sown at a depth of 1 cm into standard soil, and the wheat is cultivated in a greenhouse at a temperature of approximately 18° C. and at a relative atmospheric humidity of approximately 95% in seed containers receiving 15 hours of light per day.
The evaluation of the plants for symptoms is carried out approximately 3 weeks after sowding. 0% means an efficacy which corresponds to that of the control, whereas an efficacy of 100% means that no infection is observed.

[4] = tested on: larvae of the mustard beetle (Phaedon cochleariae); assay: Phaedon larvae test (cabbage leaf dip); assay type: in vivo; details: concentration 0.004 %
Method: as §1
Cabbage leaves (Brassica oleracea) are treated by being dipped into the preparation of active compound of the desired concentration and are populated with larvae of the mustard beetle (Phaedon cochleariae) while the leaves are still moist.
After the desired period of time, the kill in % is determined. 100% means that all beetle larvae have been killed; 0% means that none of the beetle larvae have been killed.

[5] = tested on: caterpillars of the diamondback moth (Plutella xylostella); assay: Plutella test (cabbage leaf dip); assay type: in vivo
Method: as §1
Cabbage leaves (Brassica oleracea) are treated by being dipped into the preparation of active compound of the desired concentration and are populated with caterpillars of the diamondback moth (Plutella xylostella) while the leaves are still moist.
After the desired period of time, the kill in % is determined 100% means that all caterpillars have been killed; 0% means that none of the caterpillars have been killed.

[6] = tested on: Heliothis virescens caterpillars; assay: Heliothis virescens test (soya bean shoot dip); assay type: in vivo
Method: as §1
Soya bean shoots (Glycine max) are treated by being dipped into the active compound preparation of the desired concentration and are populated with Heliothis virescens caterpillars while the leaves are still moist.
After the desired period of time, the kill in % is determined. 100% means that all caterpillars have been killed; 0% means that none of the caterpillars have been killed.

Sphaerotheca fuliginea = assay: Sphaerotheca test (cucumber)/protective; assay type: in vivo; details: 10 g/ha, single active compound, 10 days after inoculation
Method: as §1, with “of” for “of an”, “or” for “or an”, “desired concentration, or a commercial formulation of active compound or active compound combination is diluted with water to the desired” for “desired”
To test for protective activity, young plants are sprayed with the commercial active compound preparation at the stated application rate. After the spray coating has dried on, the plants are inoculated with an aqueous spore suspension of Sphaerotheca fuliginea. The plants are then placed in a greenhouse at approximately 23° C. and a relative atmospheric humidity of approximately 70%.
Evaluation is carried out 10 days after the inoculation. 0% means an efficacy which corresponds to that of the control, whereas an efficacy of 100% means that no infection is observed.

Phytophthora infestans = assay type: in vivo; details: single active compound
[7] = tested on: Diabrotica balteata - larvae in the soil; assay: Critical concentration test/soil insects, Diabrotica balteata (Example Q); assay type: in vivo; details: 10.00 ppm in soil; efficacy calculated from number of emerged maize plants
Method: To produce a suitable preparation of active compound, 1 part by weight of active compound is mixed with the stated amount of solvent, the stated amount of emulsifier is added and the concentrate is diluted with water to the desired concentration. Here, the concentration of the active compound in the preparation is almost irrelevant; only the amount by weight of active compound per volume unit of soil, which is stated in ppm (mg/l), matters. The soil is filled into 0.5 l pots and these are allowed to stand at 20° C.
Immediately after preparation, 5 maize corns are placed into each pot. After 3 days, the test insects are placed into the treated soil. After a further 7 days, the efficacy is determined. The efficacy is calculated from the number of maize plants which have emerged.

## COCC(=O)N(c1c(C)cccc1C)C(C)C(=O)OC (stereo not drawn) [metalaxyl]
[1]; concentration 0.1 %
  Kill in %: 0%
Green peach aphid
  Kill in %: 0%
[2]
  pest or weed control at 20 ppm: 0%
Spodoptera frugiperda
  pest or weed control at 20 ppm: 0%
[3]
  pest or weed control at 20 ppm: 0%

## N#Cc1c[nH]cc1-c1cccc2c1OC(F)(F)O2 [fludioxonil]
[1]; concentration 0.02 %
  Kill in %: 0%
[2]
  pest or weed control at 20 ppm: 0%
Botrytis cinerea
  Efficacy in %: 40%
Fusarium culmorum
  Efficacy in %: 0%

## CC(C1CC1)C(O)(Cn1cncn1)c1ccc(Cl)cc1 (stereo not drawn) [cyproconazole]
[4]
  Kill in %: 10%
[5]; concentration 0.004 %
  Kill in %: 0%
[6]; concentration 0.004 %
  Kill in %: 0%
[2]
  pest or weed control at 20 ppm: 0%
Spodoptera frugiperda
  pest or weed control at 20 ppm: 0%
Sphaerotheca fuliginea
  Efficacy in %: 70%
Fusarium culmorum
  Efficacy in %: 1%

## O=C(Nc1ccccc1)N(Cc1ccc(Cl)cc1)C1CCCC1 [pencycuron]
[5]; concentration 0.1 %
  Kill in %: 0%
[1]; concentration 0.1 %
  Kill in %: 0%
Green peach aphid
  Kill in %: 0%
[2]
  pest or weed control at 20 ppm: 0%

## tolylfluanid
[5]; concentration 0.02 %
  Kill in %: 0%
[6]; concentration 0.02 %
  Kill in %: 0%
[1]; concentration 0.02 %
  Kill in %: 0%
[2]
  Kill in %: 0%
Phytophthora infestans; 50 g/ha
  Efficacy in %: 34%

## Cc1ccc(C(C)NC(=O)C(NC(=O)OC(C)C)C(C)C)cc1 (racemic) [SZX722]
Phytophthora infestans; 10 g/ha
  Efficacy in %: 88%

## OC(Cc1ccccc1Cl)(Cn1nc[nH]c1=S)C1(Cl)CC1 (stereo not drawn) [(49)]
[7]
  Kill in % at active compound concentrations in ppm: 10.00 ppm = 0%
